Test results reported in US20260097047A1, “Small molecule inhibitors of the ribosome biogenesis factor NVL2” (Board of Regents, The University of Texas System, priority 2023, published 2026).
Like-named read-outs stand apart in the source and are kept apart here.

Tested on: HCT116 cells
Assay: Cell viability assay (CellTiter-Glo, 72 hours) in HCT116 human colorectal cancer cells
Type: cell-based
Settings: read-out: Activity
Procedure: Cell culture: The HCT116 cell line was obtained from ATCC and cultured in Dulbecco's Modified Eagle's Medium (DMEM)-high glucose (Sigma Aldrich #D5796) supplemented with 10% fetal bovine serum (FBS) (Sigma-Aldrich #F2442) and 2 mM L-Glutamine (Sigma Aldrich #G7513). Cells were cultured at 37° C. in 5% CO2. The identity of all cell lines was confirmed by short tandem repeat (STR) analysis and confirmed to be mycoplasma-free using a PCR based assay (Genatlantis).
Cell viability assay: In 96-well assay plates (Corning #2903), 2,000 cells were plated per well in 100 μL of medium and allowed to adhere overnight. The next day, compounds suspended in DMSO were dispensed to the assayed wells using a D300e Digital Dispenser (Tecan). All wells were normalized to 0.5% DMSO. 72 hours after incubation at 37° C. in 5% CO2, cell viability was assayed using an ATP-based luminescent viability assay, CellTiter-Glo (Promega #G8462). Substrate was mixed 1:1 with phosphate-buffered saline (PBS) supplemented with 1% Triton X-100, and 40 μL of this mixture was added to the assay wells. Plates were shaken on a microplate shaker for 10 minutes at room temperature. Luminescence (CellTiter-Glo) was recorded using a Synergy 2 microplate reader (BioTek). In Prism 9 software (GraphPad), ten-point dose response curves were plotted with baseline-correction to the vehicle control well, and IC50 values were calculated by curve fitting using asymmetric (five parameter), least squares fit.

SMILES | IC50 (Table 5, HCT116, 72 hours) | other results
CC#CCN1C(=O)c2ccc(Cl)cc2Sc2cc(NC(=O)N3CCC3)ccc21 |  | IC50 (Table 1, HCT116, 72 hours): < 500 nM
CC#CCN1C(=O)c2ccc(Cl)cc2Sc2cc(NC(=O)N3CCCCC3)ccc21 |  | IC50 (Table 1, HCT116, 72 hours): < 500 nM
CC#CCN1C(=O)c2ccccc2Sc2cc(NC(=O)N3CCCCC3)ccc21 |  | IC50 (Table 1, HCT116, 72 hours): < 500 nM
CC#CCN1C(=O)c2ccccc2Sc2cc(NC(=O)N3CCCC3)cnc21 |  | IC50 (Table 1, HCT116, 72 hours): < 500 nM
CC#CCN1C(=O)c2ccc(Cl)cc2Sc2cc(NC(=S)N3CCC3)ccc21 |  | IC50 (Table 2, HCT116, 72 hours): < 500 nM
CC#CCN1C(=O)c2ccccc2Sc2cc(NC(=S)N3CCCCC3)ccc21 |  | IC50 (Table 2, HCT116, 72 hours): < 500 nM
CC#CCN1C(=O)c2ccccc2Sc2cc(NC(=S)N3CCCC3)ccc21 |  | IC50 (Table 2, HCT116, 72 hours): < 500 nM
CC#CCN1C(=O)c2ccccc2Sc2cc(NC(=S)N3CCCC3)cnc21 |  | IC50 (Table 2, HCT116, 72 hours): < 500 nM
CC#CCN1C(=O)c2ccccc2Sc2cc(NC(=O)Nc3ccc4oc(C)nc4c3)ccc21 |  | IC50 (Table 3, HCT116, 72 hours): < 500 nM
CC#CCN1C(=O)c2ccccc2Sc2cc(NC(=O)NC34CC(OC)(C3)C4)ccc21 |  | IC50 (Table 3, HCT116, 72 hours): < 500 nM
CC#CCN1C(=O)c2ccccc2Sc2cc(NC(=O)NC34CC(OC)(C3)C4)cnc21 |  | IC50 (Table 3, HCT116, 72 hours): < 500 nM
CC#CCN1C(=O)c2ccccc2Sc2cc(NC(=O)Nc3ccc4oc(=O)n(C)c4c3)ccc21 |  | IC50 (Table 3, HCT116, 72 hours): < 500 nM
CC#CCN1C(=O)c2ccccc2Sc2cc(NC(=O)Nc3ccc4oc(=O)n(C)c4c3)cnc21 |  | IC50 (Table 3, HCT116, 72 hours): < 500 nM
CC#CCN1C(=O)c2ccccc2Sc2cc(NC(=O)Nc3ccc4scnc4c3)cnc21 |  | IC50 (Table 3, HCT116, 72 hours): < 500 nM
CC#CCN1C(=O)c2ccccc2Sc2cc(NC(=S)Nc3ccc4oc(=O)n(C)c4c3)cnc21 |  | IC50 (Table 4, HCT116, 72 hours): < 500 nM
CC#CCN1C(=O)c2ccccc2Sc2cc(NC(=S)Nc3ccc4oc(=O)n(C)c4c3)ccc21 |  | IC50 (Table 4, HCT116, 72 hours): < 500 nM
CC#CCN1C(=O)c2ccccc2Sc2cc(NC(=S)Nc3ccc4scnc4c3)ccc21 |  | IC50 (Table 4, HCT116, 72 hours): < 500 nM
CC#CCN1C(=O)c2ccccc2Sc2cc(NC(=S)Nc3ccc4scnc4c3)cnc21 |  | IC50 (Table 4, HCT116, 72 hours): < 500 nM
Cc1ccc(F)c(Nc2ccc3c(c2)Sc2ccccc2C(=O)N3CC#CCl)n1 | < 500 nM | 
Cc1ccc(F)c(Nc2cnc3c(c2)Sc2ccccc2C(=O)N3CC#CCl)n1 | < 500 nM | 
Cc1cnc(Nc2cnc3c(c2)Sc2ccccc2C(=O)N3CC#CCl)c(C)n1 | < 500 nM | 
Cc1cnc(Nc2ccc3c(c2)Sc2ccccc2C(=O)N3CC#CCl)c(C)c1 | < 500 nM | 
Cc1cnc(Nc2cnc3c(c2)Sc2ccccc2C(=O)N3CC#CCl)c(C)c1 | < 500 nM | 
Cc1cnc(C)c(Nc2ccc3c(c2)Sc2ccccc2C(=O)N3CC#CCl)n1 | < 500 nM | 

SMILES | IC50 (Table 5, HCT116, 72 hours) | other results
Cc1cnc(C)c(Nc2cnc3c(c2)Sc2ccccc2C(=O)N3CC#CCl)n1 | < 500 nM | 
Cc1ccnnc1Nc1ccc2c(c1)Sc1ccccc1C(=O)N2CC#CCl | < 500 nM | 
Cc1ccnnc1Nc1cnc2c(c1)Sc1ccccc1C(=O)N2CC#CCl | < 500 nM | 
O=C1c2ccccc2Sc2cc(Nc3cccnn3)ccc2N1CC#CCl | < 500 nM | 
O=C1c2ccccc2Sc2cc(Nc3cccnn3)cnc2N1CC#CCl | < 500 nM | 
C#CCN1C(=O)c2ccccc2Sc2cc(Nc3nc(C)ccc3F)cnc21 | < 500 nM | 
C#CCN1C(=O)c2ccccc2Sc2cc(Nc3ncc(C)nc3C)ccc21 | < 500 nM | 
C#CCN1C(=O)c2ccccc2Sc2cc(Nc3ncc(C)nc3C)cnc21 | < 500 nM | 
C#CCN1C(=O)c2ccccc2Sc2cc(Nc3ncc(C)cc3C)ccc21 | < 500 nM | 
C#CCN1C(=O)c2ccccc2Sc2cc(Nc3ncc(C)cc3C)cnc21 | < 500 nM | 
C#CCN1C(=O)c2ccccc2Sc2cc(Nc3nc(C)cnc3C)ccc21 | < 500 nM | 
C#CCN1C(=O)c2ccccc2Sc2cc(Nc3nc(C)cnc3C)cnc21 | < 500 nM | 
C#CCN1C(=O)c2ccccc2Sc2cc(Nc3nnccc3C)ccc21 | < 500 nM | 
C#CCN1C(=O)c2ccccc2Sc2cc(Nc3cccnn3)ccc21 | < 500 nM | 
C#CCN1C(=O)c2ccccc2Sc2cc(Nc3cccnn3)cnc21 | < 500 nM | 
CC#CCN1C(=O)c2ccccc2Sc2cc(Nc3ncccc3C#N)cnc21 | < 500 nM | 
CC#CCN1C(=O)c2ccccc2Sc2cc(Nc3ncccc3F)cnc21 | < 500 nM | 
CC#CCN1C(=O)c2ccccc2Sc2cc(Nc3nccc(C#N)c3F)cnc21 | < 500 nM | 
CC#CCN1C(=O)c2ccccc2Sc2cc(Nc3nccc(C)c3F)cnc21 | < 500 nM | 
CC#CCN1C(=O)c2ccccc2Sc2cc(Nc3ncc(C)cc3F)cnc21 | < 500 nM | 
CC#CCN1C(=O)c2ccccc2Sc2cc(Nc3nc(C)ccc3F)cnc21 | < 500 nM | 
CC#CCN1C(=O)c2ccccc2Sc2cc(Nc3ncccc3C)cnc21 | < 500 nM | 
CC#CCN1C(=O)c2ccccc2Sc2cc(Nc3ncccc3OC)cnc21 | < 500 nM | 
CC#CCN1C(=O)c2ccccc2Sc2cc(Nc3nccc(C#N)c3C)cnc21 | < 500 nM | 

SMILES | IC50 (Table 5, HCT116, 72 hours) | other results
CC#CCN1C(=O)c2ccccc2Sc2cc(Nc3ncc(C#N)cc3C)cnc21 | < 500 nM | 
CC#CCN1C(=O)c2ccccc2Sc2cc(Nc3nc(C#N)ccc3C)cnc21 | < 500 nM | 
CC#CCN1C(=O)c2ccccc2Sc2cc(Nc3ncc(C)nc3C)cnc21 | < 500 nM | 
CC#CCN1C(=O)c2ccccc2Sc2cc(Nc3ncc(C)cc3C)cnc21 | < 500 nM | 
CC#CCN1C(=O)c2ccccc2Sc2cc(Nc3nc(C)cnc3C)cnc21 | < 500 nM | 
CC#CCN1C(=O)c2ccccc2Sc2cc(Nc3nnccc3C#N)cnc21 | < 500 nM | 
CC#CCN1C(=O)c2ccccc2Sc2cc(Nc3nnccc3C)cnc21 | < 500 nM | 
CC#CCN1C(=O)c2ccccc2Sc2cc(Nc3cc(C)cnn3)cnc21 | < 500 nM | 
CC#CCN1C(=O)c2ccccc2Sc2cc(Nc3ncnc(C#N)c3C)cnc21 | < 500 nM | 
CC#CCN1C(=O)c2ccccc2Sc2cc(Nc3ccc(C)nn3)cnc21 | < 500 nM | 
CC#CCN1C(=O)c2ccccc2Sc2cc(Nc3cccnn3)cnc21 | < 500 nM | 
CC=CCN1C(=O)c2ccccc2Sc2cc(Nc3ncccc3C#N)ccc21 | < 500 nM | 
CC=CCN1C(=O)c2ccccc2Sc2cc(Nc3ncccc3C#N)cnc21 | < 500 nM | 
CC=CCN1C(=O)c2ccccc2Sc2cc(Nc3ncccc3F)ccc21 | < 500 nM | 
CC=CCN1C(=O)c2ccccc2Sc2cc(Nc3ncccc3F)cnc21 | < 500 nM | 
CC=CCN1C(=O)c2ccccc2Sc2cc(Nc3nccnc3C)ccc21 | < 500 nM | 
CC=CCN1C(=O)c2ccccc2Sc2cc(Nc3nccnc3C)cnc21 | < 500 nM | 
CC=CCN1C(=O)c2ccccc2Sc2cc(Nc3ncccc3C)ccc21 | < 500 nM | 
CC=CCN1C(=O)c2ccccc2Sc2cc(Nc3ncccc3C)cnc21 | < 500 nM | 
CC=CCN1C(=O)c2ccccc2Sc2cc(Nc3ncc(C)cc3C)ccc21 | < 500 nM | 
CC=CCN1C(=O)c2ccccc2Sc2cc(Nc3ncc(C)cc3C)cnc21 | < 500 nM | 
CCCC=CCN1C(=O)c2ccccc2Sc2cc(Nc3ncccc3C#N)cnc21 | < 500 nM | 
CCCC=CCN1C(=O)c2ccccc2Sc2cc(Nc3ncccc3F)cnc21 | < 500 nM | 
CCCC=CCN1C(=O)c2ccccc2Sc2cc(Nc3nccnc3C)cnc21 | < 500 nM | 

SMILES | IC50 (Table 5, HCT116, 72 hours) | other results
CCCC=CCN1C(=O)c2ccccc2Sc2cc(Nc3ncc(C)cc3C)cnc21 | < 500 nM | 
O=C1c2ccccc2Sc2cc(NC3CC4(COC4)C3)ccc2N1CC#CCl |  | IC50 (Table 6, HCT116, 72 hours): < 500 nM
O=C1c2ccccc2Sc2cc(NC3CC4(COC4)C3)cnc2N1CC#CCl |  | IC50 (Table 6, HCT116, 72 hours): < 500 nM
COCC1CC(Nc2ccc3c(c2)Sc2ccccc2C(=O)N3CC#CCl)C1 (stereo not drawn) |  | IC50 (Table 6, HCT116, 72 hours): < 500 nM
C#CCN1C(=O)c2ccccc2Sc2cc(NC3CC4(COC4)C3)cnc21 |  | IC50 (Table 6, HCT116, 72 hours): < 500 nM
CC#CCN1C(=O)c2ccccc2Sc2cc(NC3CC4(COC4)C3)cnc21 |  | IC50 (Table 6, HCT116, 72 hours): < 500 nM
CC#CCN1C(=O)c2ccccc2Cc2cc(NC3CC(CO)C3)ccc21 (stereo not drawn) |  | IC50 (Table 6, HCT116, 72 hours): < 500 nM
CC#CCN1C(=O)c2ccccc2Sc2cc(NC34CC(OC)(C3)C4)ccc21 |  | IC50 (Table 6, HCT116, 72 hours): < 500 nM
CC#CCN1C(=O)c2ccccc2Sc2cc(NC34CC(OC)(C3)C4)cnc21 |  | IC50 (Table 6, HCT116, 72 hours): < 500 nM
CC#CCN1C(=O)c2ccccc2Cc2cc(NC34CC(OC)(C3)C4)ccc21 |  | IC50 (Table 6, HCT116, 72 hours): < 500 nM
CC#CCN1C(=O)c2ccccc2Cc2cc(NC3CC(COC)C3)ccc21 (stereo not drawn) |  | IC50 (Table 6, HCT116, 72 hours): < 500 nM
CC#CCN1C(=O)c2ccccc2Sc2cc(NC3CC(COC)C3)ccc21 (stereo not drawn) |  | IC50 (Table 6, HCT116, 72 hours): < 500 nM
CC#CCN1C(=O)c2ccccc2Cc2cc(NC3CC4(CC(O)C4)C3)ccc21 (stereo not drawn) |  | IC50 (Table 6, HCT116, 72 hours): < 500 nM
CC#CCN1C(=O)c2ccccc2Sc2cc(NC3CC4(CC(O)C4)C3)ccc21 (stereo not drawn) |  | IC50 (Table 6, HCT116, 72 hours): < 500 nM
CC#CCN1C(=O)c2ccccc2Sc2cc(NC3CC4(CC(O)C4)C3)cnc21 (stereo not drawn) |  | IC50 (Table 6, HCT116, 72 hours): < 500 nM
CC#CCN1C(=O)c2ccccc2Sc2cc(NC3CC4(CC(=O)C4)C3)cnc21 |  | IC50 (Table 6, HCT116, 72 hours): < 500 nM
CC#CCN1C(=O)c2ccccc2Sc2cc(NC3CC4(CC(=O)C4)C3)ccc21 |  | IC50 (Table 6, HCT116, 72 hours): < 500 nM
CC#CCN1C(=O)c2ccccc2Sc2cc(NCC3(C)COC3)cnc21 |  | IC50 (Table 6, HCT116, 72 hours): < 500 nM
CC#CCN1C(=O)c2ccccc2Sc2cc(NC34CC(C3)C4)ccc21 |  | IC50 (Table 6, HCT116, 72 hours): < 500 nM
CC#CCN1C(=O)c2ccccc2Sc2cc(NC34CC(C3)C4)cnc21 |  | IC50 (Table 6, HCT116, 72 hours): < 500 nM
CC#CCN1C(=O)c2ccccc2Cc2cc(NC3COC3)ccc21 |  | IC50 (Table 6, HCT116, 72 hours): < 500 nM
CC#CCN1C(=O)c2ccccc2Cc2cc(NC3CCCOC3)ccc21 (stereo not drawn) |  | IC50 (Table 6, HCT116, 72 hours): < 500 nM
CC#CCN1C(=O)c2ccccc2Sc2cc(NC3CCCOC3)cnc21 (stereo not drawn) |  | IC50 (Table 6, HCT116, 72 hours): < 500 nM
C#CCOCCN1C(=O)c2ccccc2Sc2cc(NC(=O)c3ccc4scnc4c3)ccc21 |  | IC50 (Table 7, cell viability assay, CellTiter-Glo, 72 hours, scaffold drawing 42 with R^2, R^3, X/Y, Z): < 500 nM
